Entries after “also recorded” stand apart in the source; their conditions may differ.

The text below walks through data of US20240261474A1, “BIODEGRADABLE TISSUE SCAFFOLD WITH SECONDARY MATRIX TO HOST WEAKLY ADHERENT CELLS” (THE U.S.A., as represented by the Secretary, Department of …, priority 2021, published 2024).

Common to all, as to format: cell-based, human
The test system of series [1] is iPSC-RPE. In words: Testing different concentrations of AGN 193109 and endo-IWR-1 to reproduce macular (P1), central (P2) and peripheral (P3) cells. How it is done:
FIG. 13. Testing different concentrations of AGN 193109 and endo-IWR-1 to reproduce macular (P1), central (P2) and peripheral (P3) cells. A range of concentrations of AGN 193109 and endo-IWR-1 were tested that could be used to reproduce macular, central and peripheral RPE populations (labeled P1, P2 and P3, respectively). Population 1 (P1, macular cells) can be reproduced with […] of AGN 193109. Population 3 (P3, peripheral) can be reproduced with 1 mM-4 mM of endo-IWR-1. A gradient of AGN 193109 and endo-IWR-1 could be used to replicate human RPE population 2 (P2, central)—central RPE cells. In one example, this can be reproduced with 25 nM-50 nM of AGN 193109 and 0.1 mM-0.5 mM of endo-IWR-1. Boxplots relative to DMSO, P1, P2 and P3 are plotted on the left side of the graph as a reference for cell size comparison. Five concentrations were tested for AGN 193109 and endo-IWR-1.

The subject of series [2] is iPSC-RPE. In words: High-content compound screening on iPSC-RPE, cell area quantified with REShAPE. The following applies: 384-well plates, 30 days in RPE maturation medium. On the procedure: Screening of Compound Library and Imaging: 115 drugs targeting various developmental pathways or cytoskeletal stressors were selected to form a new developmental library of compounds. The drugs are either activators or inhibitors of various signaling pathways and target proteins at different levels of the signaling cascades. For each drug, an initial concentration was selected, and adjustments made to the concentration of each drug. The assays were performed on iPSC-derived committed RPE. For every drug, the concentration was lowered if toxicity was detected or increased if there was no evident effect on cell morphology in comparison to control. The list of compounds tested can be found in Table 1. The high-content screening was performed in 384-well plates (cat #6057300, Perkin Elmer) using a range of 3 different concentrations (3×, 1×, 0.3×). […]
Morphometric Analysis Using REShAPE: The binary segmentation produced by the CNN algorithm was transferred to REShAPE for cell shape analysis. […] For every cell in a field of view that has been successfully segmented, REShAPE provide quantification of more than 25 different shape metrics. […] In addition, the software created images of segmented cells for every metric analyzed, where every cell is color-coded according to the raw values (FIG. 4). The color-coded images display the location of the cells analyzed. […]

For series [3], the system named is iPSC-RPE. In words: Trans-epithelial electrical resistance (TER), tight junction integrity. The settings on record: fully mature iPSC-RPE; for TER resistance: minimum threshold 400 Ωcm^2, DMSO around 1100. On the procedure:
Different techniques were used to study RPE morphologic features.
At this point the trans-epithelial electrical resistance (TER) was assayed to confirm the quality of differentiation and examine the effect of drugs on tight junction integrity. The minimum threshold of 400 Ωcm^2 for epithelial resistance per unit area is used to determine good batches of differentiation.
Trans-epithelial electrical resistance (TER) is a measure of the tightness of the monolayer. The tighter the monolayer, the healthier are the cells in the monolayer. A cutoff of 400 ohm*cm^2 was used to exclude cells with low TER. […] The range specifies 90% of the data.

For series [4], the system named is iPSC-RPE. In words: Brightfield imaging of RPE pigmentation. The settings on record: compared to DMSO-treated iPSC-RPE, AGN 193109 0.2 μM, endo-IWR-1 4 uM. On the procedure: Brightfield imaging was used to determine RPE pigmentation defects, while hematoxylin and eosin (H&E) staining was valuable to inspect gross morphologic alterations of the monolayer. A section of transwell membrane was cut and mounted on a glass slide for brightfield imaging. Pigmentation levels were preserved after ENDO-1-IWR and AGN 193109 treatments as compared to DMSO-treated iPSC-RPE.
AGN 193109 was used at 0.2 μM and endo-IWR-1 at 4 uM. Both drugs were dissolved in DMSO, so that the final concentration of DMSO was not more than 0.1%. The final concentration of DMSO control was 0.1%. The compounds were added in RPE maturation medium until cells were mature. Gross cell morphology was also analyzed (FIGS. 20B, 20D, and 20F, left image) to detect possible abnormalities. Fine intracellular structures were examined for alterations with transmission electron microscopy (TEM, FIGS. 20B, 20D, and 20F, right image).

The test system of series [5] is iPSC-RPE. In words: Single-cell RNA sequencing. The settings on record: AGN 193109-, endo-IWR-1- and DMSO-treated cells. On the procedure:
Single-cell RNA sequencing was performed to confirm that the compounds changed cell transcriptome.

For `O=C(Nc1cccc2cccnc12)c1ccc(N2C(=O)C3C4C=CC(C4)C3C2=O)cc1` (stereo not drawn) [ENDO-1-IWR, 4-(1,3,3a,4,7,7a-Hexahydro-1,3-dioxo-4,7-methano-2H-isoindol-2-yl)-N-8-quinolinyl-Benzamide], the “concentration used to reproduce P3 (peripheral)” value in the series with iPSC-RPE [1] (Table 6) is 1 to 4 µM. The “concentration used to reproduce P2 (central)” value in the series with iPSC-RPE [1] (Table 6, ENDO-1-IWR combined with AGN 193109) lay in the range of 0.1 to 0.2 µM. Moreover, in the series with iPSC-RPE [2], the “effect on iPSC-RPE cell area / cell size distribution in the screening” value is “reproduces macular and peripheral cell sizes in vitro, respectively”. Moreover, the “effect on epithelial barrier / tight junction integrity” value with iPSC-RPE [3] was “maintained tight junction integrity”. Also, the TER resistance in the series with iPSC-RPE [3] is ~1200 Ωcm^2. Further, the figures for the pigmentation levels entry in the series on iPSC-RPE [4], in the series with iPSC-RPE [4] (listed as Endo-IWR-1) and in the series with iPSC-RPE [4] (listed as endo-IWR-1) were “preserved”, “did not alter pigmentation levels” and “did not alter pigmentation levels”, respectively. In the series on iPSC-RPE [5], the “single cell transcriptome clustering” value is listed as “cluster separately from each other”.
Consider `Cc1ccc(C2=CCC(C)(C)c3ccc(C#Cc4ccc(C(=O)O)cc4)cc32)cc1` [AGN 193109, 4-[2-[5,6-Dihydro-5,5-dimethyl-8-(4-methylphenyl)-2-naphthalenyl]ethynyl]-benzoic acid], for which, in the series with iPSC-RPE [1] (AGN 193109 combined with endo-IWR-1), the “concentration that reproduces population 2 (P2, central)” value was 25 to 50 nM. In addition, the “concentration used to reproduce P1 (macular)” value with iPSC-RPE [1] (Table 6) was in the range of 0.1 to 0.2 µM. Besides, the “effect on iPSC-RPE cell area / cell size distribution in the screening” value in the series on iPSC-RPE [2] was “reproduces macular and peripheral cell sizes in vitro, respectively”. In the series on iPSC-RPE [3], the “effect on epithelial barrier / tight junction integrity” value is reported as “maintained tight junction integrity” and the TER resistance is recorded as ~1600 Ωcm^2. The pigmentation levels result with iPSC-RPE [4] is recorded as “preserved; also recorded: did not alter pigmentation levels”. Further, the “single cell transcriptome clustering” value in the series with iPSC-RPE [5] is recorded as “cluster separately from each other”.
